[invAb] = 3' inverted deoxyabasic cap; [amino-N] = 2'-deoxy-2'-amino nucleotide (N: the base); [I] = hypoxanthine (inosine); m = 2'-O-methyl; r = 2'-OH (RNA)
tested on: plus strand HCV RNA; type: biochemical, Hepatitis C virus; settings: plus strand (+) HCV site, 50 mM Tris-Cl, pH 8.0, 40 mM Mg2+ at 37°, trace substrate, enzymatic nucleic acid concentration of 500 nM or greater

In order of rising “% Substrate Cleaved in 3 hours” value:
1. 22751 (GAGUUGAGCCGAAAGGCGAGUGAGGUCUUGGAGUG; 2'-O-methyl at 1, 2, 3, 4, 5, 6, 7, 8, 9, 10, 11, 12, 13, 14, 15, 16, [amino-N] at 17, 27, [invAb] at 3' end, other sugars and backbone not given here) [compound 22751]  14.85%
2. 22721 (UCUAAGGUGAUGGCAUGCACUAUGCGCGACACGGU; sugars from the 5' end mmmmmmmmrrrmmmmmrmmmmmmmmmrmmmmmmmm, [invAb] at 3' end, backbone not given here) [compound 22721]  47.37%
3. 22723 (ACAGGUUUGAUGGCAUGCACUAUGCGCGAACUCGU; sugars from the 5' end mmmmmmmmrrrmmmmmrmmmmmmmmmrmmmmmmmm, [invAb] at 3' end, backbone not given here) [compound 22723]  61.58%
4. 22719 (UGGAAGAUGAUGGCAUGCACUAUGCGCGACUGAGA; sugars from the 5' end mmmmmmmmrrrmmmmmrmmmmmmmmmrmmmmmmmm, [invAb] at 3' end, backbone not given here) [compound 22719]  69.88%
5. 22975 (UGGUGUAGGCTAGCTACAACGAGCGUUGAN; 3' inverted abasic cap (B); Description of Artificial Sequence: Nucleic Acid; misc_feature (30)..(30): n stands for inverted deoxyabasic derivative; misc_feature (1)..(7): 2'-O-Methyl; misc_feature (23)..(29): 2'-O-Methyl) [compound 22975]  75.77%
6. 22722 (ACCACCUUGAUGGCAUGCACUAUGCGCGACUCCAC; sugars from the 5' end mmmmmmmmrrrmmmmmrmmmmmmmmmrmmmmmmmm, [invAb] at 3' end, backbone not given here) [compound 22722]  75.84%
7. 22946 (CUCCACGCUGAUGAGGCCGUUAGGCCGAAACUCCUC; 2'-O-methyl at 1, 2, 3, 4, 5, 6, 7, 15, 16, 17, 18, 19, 20, 21, 22, 23, 24, 25, 26, 31, 32, 33, 34, 35, 36, [invAb] at 3' end, other sugars and backbone not given here) [compound 22946]  78.06%
8. 22748 (AGGUGAAGCCGAAAGGCGAGUGAGGUCUAGCUGAG; 2'-O-methyl at 1, 2, 3, 4, 5, 6, 7, 8, 9, 10, 11, 12, 13, 14, 15, 16, [amino-N] at 17, 27, [invAb] at 3' end, other sugars and backbone not given here) [compound 22748]  80.28%
9. 22750 (AGAAGAAGCCGAAAGGCGAGUGAGGUCUACGAGGAN; 2'-O-methyl, 2'-amino and inverted abasic, amino positions listed inconsistently, further chemistry not given here) [compound 22750]  80.64%
10. 22947 (GGAGUGACUGAUGAGGCCGUUAGGCCGAAAAUGCGC; 2'-O-methyl at 1, 2, 3, 4, 5, 6, 7, 15, 16, 17, 18, 19, 20, 21, 22, 23, 24, 25, 26, 31, 32, 33, 34, 35, 36, [invAb] at 3' end, other sugars and backbone not given here) [compound 22947]  81.88%
11. 22945 (GGAAGGACUGAUGAGGCCGUUAGGCCGAAAGGAUGC; 2'-O-methyl at 1, 2, 3, 4, 5, 6, 7, 15, 16, 17, 18, 19, 20, 21, 22, 23, 24, 25, 26, 31, 32, 33, 34, 35, 36, [invAb] at 3' end, other sugars and backbone not given here) [compound 22945]  82.54%
12. 22973 (AGGUGAAGGCTAGCTACAACGAAGCUGAGN; 3' inverted abasic cap (B); Description of Artificial Sequence: Nucleic Acid; misc_feature (30)..(30): n stands for inverted deoxyabasic derivative; misc_feature (1)..(7): 2'-O-Methyl; misc_feature (23)..(29): 2'-O-Methyl) [compound 22973]  83.15%
13. 22778 (UGAUGGACUGAUGAGGCCGUUAGGCCGAANCUGUGA; ribozyme; 2'-O-methyl at 1, 2, 3, 4, 5, 6, 7, 15, 16, 17, 18, 19, 20, 21, 22, 23, 24, 25, 26, 31, 32, 33, 34, 35, 36, [I] at 30, [invAb] at 3' end, other sugars and backbone not given here) [compound 22778]  83.77%
14. 22776 (GGUGAACCUGAUGAGGCCGUUAGGCCGAANCUGAGA; ribozyme; 2'-O-methyl at 1, 2, 3, 4, 5, 6, 7, 15, 16, 17, 18, 19, 20, 21, 22, 23, 24, 25, 26, 31, 32, 33, 34, 35, 36, [I] at 30, [invAb] at 3' end, other sugars and backbone not given here) [compound 22776]  84.55%
15. 22972 (UGAGAGAGGCTAGCTACAACGAGAGGAAGN; 3' inverted abasic cap (B); Description of Artificial Sequence: Nucleic Acid; misc_feature (30)..(30): "n" is an inverted deoxyabasic moiety; misc_feature (1)..(7): 2'-O-Methyl; misc_feature (23)..(29): 2'-O-Methyl) [compound 22972]  86.38%
16. 22775 (AAGAGGACUGAUGAGGCCGUUAGGCCGAANAUAGAG; ribozyme; 2'-O-methyl at 1, 2, 3, 4, 5, 6, 7, 15, 16, 17, 18, 19, 20, 21, 22, 23, 24, 25, 26, 31, 32, 33, 34, 35, 36, [I] at 30, [invAb] at 3' end, other sugars and backbone not given here) [compound 22775]  87.74%
17. 22943 (GCUGAGACUGAUGAGGCCGUUAGGCCGAAACGAGGA; 2'-O-methyl at 1, 2, 3, 4, 5, 6, 7, 15, 16, 17, 18, 19, 20, 21, 22, 23, 24, 25, 26, 31, 32, 33, 34, 35, 36, [invAb] at 3' end, other sugars and backbone not given here) [compound 22943]  89.67%
18. 22777 (CGAGGAACUGAUGAGGCCGUUAGGCCGAANAGAGGA; ribozyme; 2'-O-methyl at 1, 2, 3, 4, 5, 6, 7, 15, 16, 17, 18, 19, 20, 21, 22, 23, 24, 25, 26, 31, 32, 33, 34, 35, 36, [I] at 30, [invAb] at 3' end, other sugars and backbone not given here) [compound 22777]  90.12%
19. 22944 (UCCUGUUCUGAUGAGGCCGUUAGGCCGAAAUGUGCC; 2'-O-methyl at 1, 2, 3, 4, 5, 6, 7, 15, 16, 17, 18, 19, 20, 21, 22, 23, 24, 25, 26, 31, 32, 33, 34, 35, 36, [invAb] at 3' end, other sugars and backbone not given here) [compound 22944]  90.33%
20. 22749 (GGAAAAGGCCGAAAGGCGAGUGAGGUCUAACAGGA; 2'-O-methyl at 1, 2, 3, 4, 5, 6, 7, 8, 9, 10, 11, 12, 13, 14, 15, 16, [amino-N] at 17, 27, [invAb] at 3' end, other sugars and backbone not given here) [compound 22749]  90.80%
21. 22971 (AGGAAGAGGCTAGCTACAACGAAGAGAAAN; 3' inverted abasic cap (B); misc_feature (30)..(30): n stands for inverted deoxyabasic derivative; misc_feature (1)..(7): 2'-O-Methyl; misc_feature (23)..(29): 2'-O-Methyl) [compound 22971]  92.11%
